≈ marks a conversion by molar mass, not a printed value. Records with an inconclusive call do not appear. Calls of active or inactive are those of the source. No rule for the calls is given here.
The compounds below were run on M. tuberculosis H37Rv growth inhibition (assay: Mycobacterium tuberculosis H37Rv growth inhibition, cell based, confirmatory dose response (AID 1949);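 also: bacteria grown 7 days with compound before Alamar blue readout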).
`CCOC(=O)c1ccc(NC(=O)/C=C/c2ccc([N+](=O)[O-])s2)cc1` was tested, and the IC50 was 0.28 µg/mL (≈ 0.808 µM). For `O=C(Nc1nc(-c2ccccc2)c(-c2ccccc2)o1)c1ccc(F)cc1`, the IC50 was < 0.1 µg/mL. Compound `CCc1ccc(OCC(=O)NNC(=O)c2cnccn2)c(Br)c1` has an IC50 of 1.12 µg/mL (≈ 2.95 µM). `Cc1ccccc1N1C(=O)NC(=O)/C(=C\c2ccc([N+](=O)[O-])s2)C1=O` was tested, and the IC50 was 6.22 µg/mL (≈ 17.4 µM). `CCOC(=O)N1CCN(CCC(=O)c2ccc(Cl)cc2)CC1` gave an IC50 of 2.45 µg/mL (≈ 7.54 µM). `Cc1ccc(Cn2cnc3sc4c(c3c2=O)CCCC4)cc1` gave an IC50 of 8.41 µg/mL (≈ 27.1 µM). Compound `O=C1N(Cc2ccccc2Cl)c2ccc(Br)cc2C1(O)c1c[nH]c2ccccc12` (configuration not stated) has an IC50 of 1.68 µg/mL (≈ 3.59 µM). Work on `CCCCn1c(=N)n(CC(O)COc2cccc(C)c2)c2ccccc21` (configuration not stated) yielded an IC50 of 6.05 µg/mL (≈ 17.1 µM). For `NC(=O)CSc1nnc(SCc2ccc(F)cc2)s1`, the IC50 was 9.02 µg/mL (≈ 28.6 µM). Compound `CCc1ccc(NC(=S)Nc2ccc(Cl)c(Cl)c2)cc1` has an IC50 of 1.38 µg/mL (≈ 4.24 µM). In the case of `Cc1cccc(C(=O)NC(=S)Nc2ccc([N+](=O)[O-])cc2O)c1`, the IC50 is reported as 0.19 µg/mL (≈ 0.573 µM). Work on `CCOC(=O)COc1ccc(S(=O)(=O)Nc2c(C)cccc2CC)cc1` yielded an IC50 of 0.33 µg/mL (≈ 0.874 µM). `Cc1ccc(NC(CC(=O)c2ccc([N+](=O)[O-])cc2)c2ccccc2)cc1` (configuration not stated) showed an IC50 of 49.2 µg/mL (≈ 136 µM). For `c1ccc(CCN2CCN(c3ncnc4sc5c(c34)CCCC5)CC2)cc1`, the IC50 was 23.9 µg/mL (≈ 63.2 µM). `O=C(CSc1ccc(Br)cc1)Nc1cccc(Cl)c1` was tested, and the IC50 was 1.51 µg/mL (≈ 4.23 µM). For `CCn1c(NC(=S)Nc2ccccc2)nc2ccccc21`, the IC50 was > 50 µg/mL (inactive). `O=C(CCN1CCC(c2ccccc2)C1)c1cccs1` (configuration not stated) showed an IC50 of 11.5 µg/mL (≈ 40.2 µM). For `O=[N+]([O-])c1ccc(O)c(-c2nc3ccccc3s2)c1`, the IC50 was > 50 µg/mL (inactive). For `Nc1ncnc2c1[nH]c(=S)n2CCOc1cccc2ccccc12`, the IC50 was 10.9 µg/mL (≈ 32.5 µM). In the case of `Cc1cc(NC(=O)CSc2nnnn2-c2ccccc2C)no1`, the IC50 is reported as 1.41 µg/mL (≈ 4.27 µM). In the case of `Cc1cc(C)c2nc(NC3=NC(c4ccccc4)CC(=O)N3)nc(C)c2c1` (configuration not stated), the IC50 is reported as > 50 µg/mL (inactive). Compound `O=C(CCNc1ccc(Cl)c(C(F)(F)F)c1)c1cccs1` has an IC50 of 3.17 µg/mL (≈ 9.5 µM). `CCN(CC)S(=O)(=O)c1ccc(Cl)c(C(=O)Oc2cccc3cccnc23)c1` was tested, and the IC50 was 2.45 µg/mL (≈ 5.85 µM). In the case of `CCOC(=O)c1c(NC(=S)NC2CCN(Cc3ccccc3)CC2)sc(C)c1-c1ccccc1`, the IC50 is reported as 1.38 µg/mL (≈ 2.8 µM). Work on `Cc1cccc(NC(=O)Nc2ccc(C(F)(F)F)cc2)c1` yielded an IC50 of 8.07 µg/mL (≈ 27.4 µM). For `O=C(CCN1CCc2ccccc2C1)c1ccc2c(c1)OCCO2`, the IC50 was 14.9 µg/mL (≈ 46 µM). `Cc1cccc2c1N(CCOc1ccc(C(C)(C)C)cc1)C(=O)C2=O` was tested, and the IC50 was > 50 µg/mL (inactive). Work on `COC(=O)COc1ccc(Br)cc1C=O` yielded an IC50 of 12.4 µg/mL (≈ 45.5 µM). Compound `NC(N)=N/N=C/c1ccc(OCc2ccc(Cl)cc2Cl)cc1` has an IC50 of 11 µg/mL (≈ 32.6 µM). For `CC12CC3CC(C)(C1)CC(C(=O)NC1=NCCS1)(C3)C2`, the IC50 was 13 µg/mL (≈ 44.3 µM). `O=C(Nc1ccc(C(F)(F)F)cc1)Nc1cccc(F)c1` gave an IC50 of 0.76 µg/mL (≈ 2.55 µM). `c1ccc2c(N3CCCCC3)nc(N3CCCC3)nc2c1` gave an IC50 of 40.4 µg/mL (≈ 143 µM). `Cc1ccc(C(=O)NCCC2=CCCCC2)cc1Br` gave an IC50 of 3.14 µg/mL (≈ 9.74 µM). `COc1ccccc1C1CC(=O)C2=C(C1)NC(C)=C(C(=O)OC1CCCC1)C2c1ccc(O)cc1` (configuration not stated) showed an IC50 of 4.74 µg/mL (≈ 10 µM). `O=C(NCCC12CC3CC(CC(C3)C1)C2)c1ccc(Br)cc1` gave an IC50 of 0.28 µg/mL (≈ 0.773 µM). Compound `O=C(Oc1ccc(Cl)c2cccnc12)c1cccc(Br)c1` has an IC50 of 10.6 µg/mL (≈ 29.3 µM). Work on `CCc1nc2ccccc2n1CC(O)COc1ccc(I)cc1` (configuration not stated) yielded an IC50 of 1.97 µg/mL (≈ 4.67 µM). `CCOC(=O)c1cnc2c(C)c(C)ccc2c1NCc1ccco1` gave an IC50 of 3.91 µg/mL (≈ 12.1 µM). With `Cc1ccc(-c2nc(NC(=O)CO)cs2)cc1` the IC50 was 0.36 µg/mL (≈ 1.45 µM). For `CCC(C)Oc1ccc(C(=O)NC(=S)Nc2ccc3c(c2)COC3=O)cc1` (configuration not stated), the IC50 was 0.55 µg/mL (≈ 1.43 µM). In the case of `CC(C)(C)c1ccc(OCCn2c(N)nc3ccccc32)cc1`, the IC50 is reported as 1.61 µg/mL (≈ 5.2 µM). In the case of `Cc1ccc(-c2nnc(SC3=CS(=O)(=O)c4ccccc43)o2)cc1`, the IC50 is reported as > 50 µg/mL (inactive). Compound `O=[N+]([O-])c1ccc(NC(=S)NCc2ccc(Cl)c(Cl)c2)cc1` has an IC50 of 1.84 µg/mL (≈ 5.17 µM). `COC(=O)C(C)Oc1ccc2c3c(c(=O)oc2c1)CCCCC3` (configuration not stated) was tested, and the IC50 was > 50 µg/mL (inactive). `Cc1ccc(NC(=O)c2cc([N+](=O)[O-])ccc2O)cc1` gave an IC50 of 14.3 µg/mL (≈ 52.4 µM). Compound `COc1ccccc1C(=O)Oc1ccc2c(c1)C(C)CC(C)(C)N2` (configuration not stated) has an IC50 of 4.97 µg/mL (≈ 15.3 µM). For `Cc1ccc(SCC(=O)Nc2cccc(C)c2)cc1`, the IC50 was 10.9 µg/mL (≈ 40.2 µM).

Reference: PubChem BioAssay AID1949 (Southern Research Institute, 2009)
